In US6197258A, “Photoluminescent sensors of chemical analytes” (University of Maryland, Baltimore, priority 1999, dated 2001) one finds Kd data, which are given here for four molecules.

The target of test [1] is T1, recombinant human carbonic anhydrase II, wild type, holoprotein (holo-CA, Zn(II) bound) (Homo sapiens, UniProt P00918).
T1 construct: made in house; host or cells: E. coli (inferred from 'as previously described'; b198 states E. coli for the wild type gene, b110 states BL21(DE3)pACA for a variant)
Briefly: Affinity of ABD-M for holo-CA from changes in fluorescence intensity or anisotropy. It counts as binding. As to conditions: holocarbonic anhydrase. The text has this:
Our approach for determining metal ions by fluorescence anisotropy is diagrammed in FIG. 16. ABD-M was synthesized by coupling ABD-F (7-fluoro-benz-2-oxa-1,3-diazole-4-sulfonamide; Molecular Probes Cat. No.F-6053) with excess beta-mercaptoethanol in dimethylformamide overnight at room temperature (FIG. 17). […] Recombinant human carbonic anhydrase II was expressed, isolated, and purified; and its Zn(II) removed by treatment with dipicolinate all as previously described. In view of the well-known difficulty of reproducibly preparing solutions with low concentrations of free zinc ion, we prepared a series of metal ion buffers using nitrilotriacetic acid (NTA) and MOPS. […] The concentration of Zn(II) unbound at a particular pH is readily calculable from the known stability constants of the NTA and the pKa's of NTA's ionizable groups (19). […]
Fluorescence spectra, intensities and anisotropies were measured on a Spectronics AB-2 fluorimeter using film polarizers and 4 nm bandpasses. Frequency-dependent phase shifts and demodulations were measured on an ISS K2 phase fluorometer using the UV lines of a Spectra-Physics 2065 argon ion laser for excitation, dimethylPOPOP in ethanol as a reference compound as previously described, and bandpass filters as indicated in the figure legends. […]

Test [2] deals with T2, wild type human carbonic anhydrase II, holoprotein (holo-CA) (Homo sapiens, UniProt P00918).
T2 construct: made in house; host or cells: E. coli
Briefly: KD of the diffusible inhibitor ABD-N for the holoprotein. It counts as binding. As for the experimental part:
Genes for wild type human carbonic anhydrase II and variants were isolated, constructed, and expressed in E. coli as previously described. ABD-N was synthesized by coupling ABD-F (Molecular Probes, Eugene, Oreg.) with excess ethanolamine in DMF at room temperature for 4 hours and lyophilizing. Zn(II) was removed from holo-CA to make apo-CA by treatment with dipicolinate as previously described. Fluorescence anisotropy measurements were obtained on an SLM AB-2 spectrophotofluorimeter according to the manufacturer's recommendations, under the spectral conditions given in the figures.
The changes in anisotropy are also dramatic, going from 0.08 to 0.23 as the apoprotein becomes saturated with Zn(II) (FIG. 37); the ordinary accuracy and precision of such measurements is ±0.003. The apparent KD of the enzyme for Zn(II) under these conditions is about 20 picomolar, which is somewhat higher than published values obtained under slightly different conditions.
The use of a separate, diffusible inhibitor like ABD-N can create difficulties, however. […] This Cu(II) determination, while clearly representing a […] response, cannot be due to simple collisional quenching by the Cu(II) at these low concentrations,and furthermore is more than one thousand-fold more sensitive than previous fluorescence-based determinations of Cu(II).

Test [3] deals with T3, recombinant human carbonic anhydrase II, holocarbonic anhydrase II (Homo sapiens, UniProt P00918).
T3 construct: made in house; host or cells: E. coli (inferred from 'by the means previously discussed herein'; b110 states E. coli BL21(DE3)pACA for a variant)
Briefly: Affinity of holocarbonic anhydrase for Dapoxyl sulfonamide from fluorescence intensity changes. It is filed as binding. As to conditions: from fluorescence intensity changes (data not shown). As for the experimental part:
The recombinant human carbonic anhydrase II was obtained by the means previously discussed herein. Fluorescence spectra and anisotropies were determined on a Spectronics AB-2 spectrophotofluorometer; the former are uncorrected. Fluorescence lifetimes were determined on an ISS K2 multifrequency phase fluorometer using the 442 nm line (30 mW) of a Kimmon HeCd laser (for BTCS) or the ultraviolet lines (100 mW) of a Spectra-Physics model 2065-7S argon ion laser (for dapoxyl sulfonamide) essentially as previously described. […]
In particular, emission of the bound form shifts from a peak at 605 nm to 530 nm, and increases about 90-fold, compared to the free form. […] The advantages of intensity ratios for accuracy in quantitating concentrations of metal ions such as calcium are by now widely appreciated. These intensity changes permit the affinity of holocarbonic anhydrase for Dapoxyl sulfonamide to be determined as […] (data not shown). The intensity increase of dapoxyl sulfonamide is also accompanied by a large increase in fluorescence lifetime. We measured the frequency-dependent phase angles and demodulation of dapoxyl sulfonamide free in solution, in the presence of holocarbonic anhydrase II, and in the presence of sonicated unilamellar vesicles of DOPC/cholesterol 3:1 (0.1 M). […]

For test [4], the target named is T1, recombinant human carbonic anhydrase II, wild type, holoprotein (holo-CA, Zn(II) bound). As to conditions: comparison value, conditions not given; read-out: affinity (dansylamide, comparison value); cited from earlier work.

Read-outs that look alike come from different tables or passages of the source.

Take `NS(=O)(=O)c1ccc(SCCO)c2nonc12` [ABD-M, 7-fluorobenz-2-oxa-1,3,-diazole-4-sulfonamide+beta-mercaptoethanol adduct]: the Kd in test [1] came to 300 nM.

`NS(=O)(=O)c1ccc(NCCO)c2nonc12` [ABD-N, 7-fluorobenz-2-oxa-1,3,-diazole-4-sulfonamide:ethanolamine adduct] yielded a Kd in test [2] of roughly 300 nM. In the case of `CN(C)c1ccc(-c2cnc(-c3ccc(S(N)(=O)=O)cc3)o2)cc1` [Dapoxyl sulfonamide], in test [3], the Kd is 300 nM. On to `CN(C)c1cccc2c(S(N)(=O)=O)cccc12` [dansylamide], for which the Kd in test [4] was 800 nM.
